Measurements published in US7329652B2, “Diaminotriazole compounds useful as protein kinase inhibitors” (Vertex Pharamaceuticals Incorporated, priority 2004, dated 2008).
pKi: −log10 of the molar value. Where two headings read alike, the source gives them in different places.

What was measured:
[1] = biological target: T1, JAK3 (Homo sapiens, UniProt P52333); assay: JAK3 inhibition assay (radiometric 33P filter assay); format: biochemical
T1 sequence (P52333 1-1124): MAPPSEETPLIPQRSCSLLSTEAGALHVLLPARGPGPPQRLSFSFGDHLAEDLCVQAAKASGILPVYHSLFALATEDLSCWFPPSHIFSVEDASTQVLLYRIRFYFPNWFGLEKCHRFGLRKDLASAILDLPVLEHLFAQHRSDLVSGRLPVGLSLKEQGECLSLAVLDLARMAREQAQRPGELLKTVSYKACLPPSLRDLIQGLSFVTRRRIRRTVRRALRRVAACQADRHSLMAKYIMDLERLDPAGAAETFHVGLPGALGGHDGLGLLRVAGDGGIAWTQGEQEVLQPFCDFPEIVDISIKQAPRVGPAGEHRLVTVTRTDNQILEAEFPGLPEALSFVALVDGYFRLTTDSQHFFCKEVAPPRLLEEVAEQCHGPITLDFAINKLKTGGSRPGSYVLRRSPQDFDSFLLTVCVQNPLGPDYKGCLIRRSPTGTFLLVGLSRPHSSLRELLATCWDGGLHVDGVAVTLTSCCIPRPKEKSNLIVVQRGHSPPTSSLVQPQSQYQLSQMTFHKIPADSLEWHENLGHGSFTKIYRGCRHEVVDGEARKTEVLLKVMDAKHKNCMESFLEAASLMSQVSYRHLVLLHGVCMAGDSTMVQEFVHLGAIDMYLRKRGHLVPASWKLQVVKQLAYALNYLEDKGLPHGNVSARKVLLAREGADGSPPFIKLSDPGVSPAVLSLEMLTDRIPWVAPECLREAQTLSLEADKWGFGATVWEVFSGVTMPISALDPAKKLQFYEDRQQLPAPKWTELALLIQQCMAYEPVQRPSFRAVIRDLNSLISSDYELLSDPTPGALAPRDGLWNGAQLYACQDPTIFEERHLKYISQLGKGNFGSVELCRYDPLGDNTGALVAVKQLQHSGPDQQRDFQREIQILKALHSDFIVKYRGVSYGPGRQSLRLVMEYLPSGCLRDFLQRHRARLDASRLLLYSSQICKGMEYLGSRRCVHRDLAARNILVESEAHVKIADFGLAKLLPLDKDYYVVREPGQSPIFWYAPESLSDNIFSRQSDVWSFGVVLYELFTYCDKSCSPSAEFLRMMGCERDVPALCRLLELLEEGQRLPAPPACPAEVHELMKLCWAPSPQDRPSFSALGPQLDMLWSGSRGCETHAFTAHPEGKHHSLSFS
Outline: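 Final conditions were 1 nM JAK3, 5 μM ATP (200 uCi/μmole) and 1 μM poly(Glu)4Tyr in 100 mM HEPES pH 7.4, 10 mM MgCl2, 25 mM NaCl, 1 mM DTT and 0.01% BSA. After 20 min at 25 °C the reaction was stopped with TCA. 33P incorporation was counted after glass-fibre filtration.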

[2] = biological target: JAK-2 enzyme (Homo sapiens, UniProt O60674); assay: JAK2 inhibition assay (radiometric 33P filter assay); format: biochemical
Chain of JAK-2 enzyme (O60674 whole entry, species assumed): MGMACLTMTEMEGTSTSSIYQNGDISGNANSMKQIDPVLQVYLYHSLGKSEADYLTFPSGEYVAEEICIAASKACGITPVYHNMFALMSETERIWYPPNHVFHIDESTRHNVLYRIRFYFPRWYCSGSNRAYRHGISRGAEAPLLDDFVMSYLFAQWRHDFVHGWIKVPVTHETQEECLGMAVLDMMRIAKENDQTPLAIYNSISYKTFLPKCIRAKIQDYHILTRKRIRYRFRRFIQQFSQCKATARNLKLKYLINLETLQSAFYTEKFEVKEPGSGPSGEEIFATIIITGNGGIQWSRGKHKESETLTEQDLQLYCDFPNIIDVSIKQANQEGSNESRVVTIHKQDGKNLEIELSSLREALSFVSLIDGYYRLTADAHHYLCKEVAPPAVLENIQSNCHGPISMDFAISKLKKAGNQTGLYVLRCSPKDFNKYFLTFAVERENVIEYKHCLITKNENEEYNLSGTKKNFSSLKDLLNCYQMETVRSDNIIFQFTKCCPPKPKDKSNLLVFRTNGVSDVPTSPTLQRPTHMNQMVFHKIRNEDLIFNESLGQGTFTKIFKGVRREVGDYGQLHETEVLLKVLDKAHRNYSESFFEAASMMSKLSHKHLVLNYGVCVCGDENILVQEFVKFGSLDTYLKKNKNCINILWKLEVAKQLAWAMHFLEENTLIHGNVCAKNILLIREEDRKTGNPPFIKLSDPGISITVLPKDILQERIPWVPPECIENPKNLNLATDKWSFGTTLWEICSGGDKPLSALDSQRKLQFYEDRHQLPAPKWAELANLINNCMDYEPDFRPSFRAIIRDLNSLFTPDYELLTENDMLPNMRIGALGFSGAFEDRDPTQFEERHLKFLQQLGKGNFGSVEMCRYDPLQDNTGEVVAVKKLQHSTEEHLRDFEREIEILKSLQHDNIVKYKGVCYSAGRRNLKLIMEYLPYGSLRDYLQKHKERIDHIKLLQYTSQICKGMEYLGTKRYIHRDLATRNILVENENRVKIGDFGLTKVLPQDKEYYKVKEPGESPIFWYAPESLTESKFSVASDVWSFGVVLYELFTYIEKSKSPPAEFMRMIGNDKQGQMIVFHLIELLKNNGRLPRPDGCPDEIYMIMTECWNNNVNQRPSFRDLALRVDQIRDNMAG
Outline: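 JAK-2 enzyme in 100 mM HEPES pH 7.4, 1 mM DTT, 10 mM MgCl2, 25 mM NaCl, 0.01% BSA, with final 12 μM [33P]ATP and 15 μM poly(Glu)4Tyr. Reactions ran 20 min at 25 °C and were stopped with TCA. 33P incorporation was counted after glass-fibre filtration.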

[3] = 1 μM poly(Glu)4Tyr, 5 μM ATP, 1 nM JAK3, 25° C., read-out: JAK3 inhibition data (Ki)
[4] = 15 μM poly(Glu)4Tyr, 12 μM ATP, read-out: JAK2 inhibition data (Ki)

Compound	pKi [1, 3]	pKi [2, 4]	pKi [1]	pKi [2]
CC(=O)N1[C@H](C)CN(c2cc(-n3nc(Nc4ccc(N5CCN(C(=O)OCC(C)C)CC5)cc4)nc3N)ccn2)C[C@@H]1C [Compound 128]	> 7.30	> 7.30		
CC(=O)N1CCCN(c2cc(-n3nc(Nc4ccc(N(C)C(=O)OC(C)C)cc4)nc3N)ncn2)CC1 [Compound 130]	> 7.30	> 7.30		
CC(=O)N1CCCN(c2cc(-n3nc(Nc4ccc(N(C)C(=O)OCC(C)(C)C)cc4)nc3N)ncn2)CC1 [Compound 132]	> 7.30	> 7.30		
CC(=O)N1CCCN(c2cc(-n3nc(Nc4ccc(N(C)C(=O)Oc5ccc(C)cc5)cc4)nc3N)ncn2)CC1 [Compound 133]			> 7.30	> 7.30
CC(=O)N1CCCN(c2cc(-n3nc(Nc4ccc(N(C)C(=O)Oc5ccccc5)cc4)nc3N)ncn2)CC1 [Compound 134]			> 7.30	> 7.30
COc1ccc(OC(=O)N(C)c2ccc(Nc3nc(N)n(-c4cc(N5CCCN(C(C)=O)CC5)ncn4)n3)cc2)cc1 [Compound 135]			> 7.30	> 7.30
CC(C)(C)OC(=O)Nc1ccc(Nc2nc(N)n(-c3cc(N4CCCN(C(=O)CC#N)CC4)ncn3)n2)cc1 [Compound 136]	> 7.30	> 7.30		
Cc1ccc(OC(=O)Nc2ccc(Nc3nc(N)n(-c4cc(N5CCCN(C(=O)CC#N)CC5)ncn4)n3)cc2)cc1 [Compound 138]	> 7.30	> 7.30		
CC(=O)N1[C@H](C)CN(c2cc(-n3nc(Nc4ccc(N5CCN(C(=O)OC(C)C)CC5)cc4)nc3N)ccn2)C[C@@H]1C [Compound 143]	> 7.30	> 7.30		
CCOC(=O)N1CCN(c2ccc(Nc3nc(N)n(-c4cc(N5CCCN(S(C)(=O)=O)CC5)ncn4)n3)cc2)CC1 [Compound 144]	6.30 to 7.30	6.30 to 7.30		
CCOC(=O)N1CCN(c2ccc(Nc3nc(N)n(-c4cc(N5CCCN(S(=O)(=O)CC)CC5)ncn4)n3)cc2)CC1 [Compound 145]	6.30 to 7.30	6.30 to 7.30		
CCCCS(=O)(=O)N1CCCN(c2cc(-n3nc(Nc4ccc(N5CCN(C(=O)OCC)CC5)cc4)nc3N)ccn2)CC1 [Compound 147]	6.30 to 7.30	6.30 to 7.30		
CCOC(=O)N1CCN(c2ccc(Nc3nc(N)n(-c4ccnc(N5CCCN(C(=O)OCC)CC5)c4)n3)cc2)CC1 [Compound 149]	6.30 to 7.30	6.30 to 7.30		
CCS(=O)(=O)N1CCN(c2ccc(Nc3nc(N)n(-c4ccnc(N5CCCN(C(=O)OC)CC5)c4)n3)cc2)CC1 [Compound 152]	6.30 to 7.30	6.30 to 7.30		
CCCOC(=O)N1CCCN(c2cc(-n3nc(Nc4ccc(N5CCN(S(=O)(=O)CC)CC5)cc4)nc3N)ccn2)CC1 [Compound 154]	6.30 to 7.30	6.30 to 7.30		
CCOC(=O)N1CCCN(c2cc(-n3nc(Nc4ccc(N5CCN(C(=O)OC(C)C)CC5)cc4)nc3N)ccn2)CC1 [Compound 157]	6.30 to 7.30	6.30 to 7.30		
CCCOC(=O)N1CCN(c2ccc(Nc3nc(N)n(-c4ccnc(N5CCCN(C(=O)OCC)CC5)c4)n3)cc2)CC1 [Compound 159]	6.30 to 7.30	6.30 to 7.30		
CCCOC(=O)N1CCN(c2ccc(Nc3nc(N)n(-c4ccnc(N5CCCN(S(C)(=O)=O)CC5)c4)n3)cc2)CC1 [Compound 162]	6.30 to 7.30	6.30 to 7.30		
CCCOC(=O)N1CCN(c2ccc(Nc3nc(N)n(-c4ccnc(N5CCCN(S(=O)(=O)CC)CC5)c4)n3)cc2)CC1 [Compound 163]	6.30 to 7.30	6.30 to 7.30		
CCCOC(=O)N1CCN(c2ccc(Nc3nc(N)n(-c4ccnc(N5CCCN(S(=O)(=O)C(C)C)CC5)c4)n3)cc2)CC1 [Compound 165]	6.30 to 7.30	6.30 to 7.30		
CCOC(=O)N1CCN(c2ccc(Nc3nc(N)n(-c4cc(N5CCC6CCC(C5)N6C)ncn4)n3)cc2)CC1 (stereo not shown) [Compound 166]	> 7.30	> 7.30		
CCS(=O)(=O)N1CCCN(c2cc(-n3nc(Nc4ccc(N5CCN(C(=O)OC(C)C)CC5)cc4)nc3N)ccn2)CC1 [Compound 169]	6.30 to 7.30	6.30 to 7.30		
COC(=O)Nc1ccc(Nc2nc(N)n(-c3ccnc(N4CCCN(C(C)=O)CC4)c3)n2)cc1 [Compound 170]	6.30 to 7.30	6.30 to 7.30		
CCOC(=O)Nc1ccc(Nc2nc(N)n(-c3ccnc(N4CCCN(C(C)=O)CC4)c3)n2)cc1 [Compound 171]	> 7.30	6.30 to 7.30		
CCCOC(=O)Nc1ccc(Nc2nc(N)n(-c3ccnc(N4CCCN(C(C)=O)CC4)c3)n2)cc1 [Compound 172]	> 7.30	6.30 to 7.30		

The next lines start with results.

pKi [1, 3]	pKi [2, 4]	Compound	pKi [1]	pKi [2]
> 7.30	> 7.30	CCCOC(=O)N(C)c1ccc(Nc2nc(N)n(-c3cc(N4CCCN(C(C)=O)CC4)ncn3)n2)cc1 [Compound 129]		
> 7.30	> 7.30	CC(=O)N1CCCN(c2cc(-n3nc(Nc4ccc(N(C)C(=O)OCC(C)C)cc4)nc3N)ncn2)CC1 [Compound 131]		
> 7.30	> 7.30	CCOC(=O)Nc1ccc(Nc2nc(N)n(-c3cc(N4CCCN(C(=O)CC#N)CC4)ncn3)n2)cc1 [Compound 137]		
> 7.30	> 7.30	CCCOC(=O)N1CCN(c2ccc(Nc3nc(N)n(-c4ccnc(N5C[C@@H](C)N(C(C)=O)[C@@H](C)C5)c4)n3)cc2)CC1 [Compound 139]		
> 7.30	> 7.30	CCCOC(=O)N1CCN(c2ccc(Nc3nc(N)n(-c4ccnc(N5CCCN(C(=O)CC#N)CC5)c4)n3)cc2)CC1 [Compound 140]		
> 7.30	> 7.30	CC(=O)N1[C@H](C)CN(c2cc(-n3nc(Nc4ccc(N5CCN(C(=O)OCC(C)(C)C)CC5)cc4)nc3N)ccn2)C[C@@H]1C [Compound 142]		
6.30 to 7.30	6.30 to 7.30	CCCS(=O)(=O)N1CCCN(c2cc(-n3nc(Nc4ccc(N5CCN(C(=O)OCC)CC5)cc4)nc3N)ncn2)CC1 [Compound 146]		
6.30 to 7.30	6.30 to 7.30	CCOC(=O)N1CCN(c2ccc(Nc3nc(N)n(-c4ccnc(N5CCCN(C(=O)OC)CC5)c4)n3)cc2)CC1 [Compound 148]		
6.30 to 7.30	6.30 to 7.30	CCCOC(=O)N1CCCN(c2cc(-n3nc(Nc4ccc(N5CCN(C(=O)OCC)CC5)cc4)nc3N)ccn2)CC1 [Compound 150]		
6.30 to 7.30	6.30 to 7.30	CCOC(=O)N1CCN(c2ccc(Nc3nc(N)n(-c4ccnc(N5CCCN(C(=O)OC(C)C)CC5)c4)n3)cc2)CC1 [Compound 151]		
6.30 to 7.30	6.30 to 7.30	CCOC(=O)N1CCCN(c2cc(-n3nc(Nc4ccc(N5CCN(S(=O)(=O)CC)CC5)cc4)nc3N)ccn2)CC1 [Compound 153]		
6.30 to 7.30	6.30 to 7.30	CCS(=O)(=O)N1CCN(c2ccc(Nc3nc(N)n(-c4ccnc(N5CCCN(C(=O)OC(C)C)CC5)c4)n3)cc2)CC1 [Compound 155]		
6.30 to 7.30	6.30 to 7.30	COC(=O)N1CCCN(c2cc(-n3nc(Nc4ccc(N5CCN(C(=O)OC(C)C)CC5)cc4)nc3N)ccn2)CC1 [Compound 156]		
6.30 to 7.30	6.30 to 7.30	CCCOC(=O)N1CCN(c2ccc(Nc3nc(N)n(-c4ccnc(N5CCCN(C(=O)OC)CC5)c4)n3)cc2)CC1 [Compound 158]		
6.30 to 7.30	6.30 to 7.30	CCCOC(=O)N1CCN(c2ccc(Nc3nc(N)n(-c4ccnc(N5CCCN(C(=O)OCCC)CC5)c4)n3)cc2)CC1 [Compound 160]		
6.30 to 7.30	6.30 to 7.30	CCCOC(=O)N1CCN(c2ccc(Nc3nc(N)n(-c4ccnc(N5CCCN(C(=O)OC(C)C)CC5)c4)n3)cc2)CC1 [Compound 161]		
6.30 to 7.30	6.30 to 7.30	CCCOC(=O)N1CCN(c2ccc(Nc3nc(N)n(-c4ccnc(N5CCCN(S(=O)(=O)CCC)CC5)c4)n3)cc2)CC1 [Compound 164]		
> 7.30	> 7.30	CCOC(=O)N1CCN(c2ccc(Nc3nc(N)n(-c4cc(NC)ncn4)n3)cc2)CC1 [Compound 167]		
6.30 to 7.30	6.30 to 7.30	CC(C)OC(=O)N1CCN(c2ccc(Nc3nc(N)n(-c4ccnc(N5CCCN(S(C)(=O)=O)CC5)c4)n3)cc2)CC1 [Compound 168]		
